Data published in US20250034116A1, “1,4-DIHETEROCYCLIC SUBSTITUTED AROMATIC RING OR AROMATIC HETEROCYCLIC COMPOUND AND USE THEREOF” (BeBetter Med Inc., priority 2022, published 2025).

How the values were obtained:
[1] = tested on: diet-induced obesity (DIO) mouse model; assay: Experiment 3: compound 2, weight loss and blood glucose lowering in DIO mouse model; assay type: in vivo, Male C57BL/6J mice
Text: Experiment 3 was to study the effects of compound 2 on weight loss and blood glucose lowering in a diet-induced obesity (DIO) mouse model. Male C57BL/6J mice were purchased from Zhuhai BST Biotechnology Co., Ltd. and housed in a barrier system animal facility. Animals were randomly divided into 3 groups: normal control group, DIO model control group, and DIO model compound 2 treatment group, with 6-8 animals per group. The model control group and treatment group were first fed with high-fat diet (HFD) for 9 weeks (day 63), and then the treatment group was orally administered with compound 2 at a dose of 30 mg/kg once daily for 8 consecutive weeks, while continuing to receive HFD. Animal weights were measured weekly, and on the last day of treatment, they were fasted overnight but allowed access to water before an oral glucose tolerance test (OGTT).

[2] = tested on: diet-induced obesity (DIO) mouse model; assay: Experiment 2: compound 2 and 4, weight loss and blood glucose lowering in DIO mouse model; assay type: in vivo, Male C57BL/6J mice
Text: Experiment 2 was to study the effects of compound 2 and 4 on weight loss and blood glucose lowering in a diet-induced obesity (DIO) mouse model. Male C57BL/6J mice were purchased from Zhuhai BST Biotechnology Co., Ltd. and housed in a barrier system animal facility. Animals were randomly divided into 4 groups: normal control group, DIO model control group, DIO model compound 2 treatment group, and DIO model compound 4 treatment group, with 4-5 animals per group. The model control group and treatment groups were first fed with high-fat diet (HFD) for 9 weeks (day 63), and then the treatment groups were orally administered with compound 2 or compound 4 at a dose of 50 mg/kg once daily for 4 consecutive weeks, while continuing to receive HFD. Animal weights were measured weekly, and on the last day of treatment, they were fasted overnight but allowed access to water before an oral glucose tolerance test (OGTT).

[3] = 30 mg/kg orally once daily for 8 weeks, DIO mice
[4] = 50 mg/kg orally once daily for 4 weeks, DIO mice

In the case of `O=C1CCCN1CC1CCN(c2ccc(-c3cn[nH]c3)cc2F)CC1` [Compound 2, 1-((1-(2-fluoro-4-(1H-pyrazol-4-yl)phenyl)piperidin-4-yl)methyl)pyrrolidin-2-one], the fasting blood glucose [1, 3] is reported as “inhibit the increase in fasting blood glucose”, the “glucose metabolism (OGTT)” value [1, 3] is reported as “enhance their glucose metabolism” and the “food intake compared to the DIO model control group” value ([1]; 30 mg/kg orally once daily, after 2 weeks) is reported as “no difference”. The “difference in weight gain relative to the DIO model control group” value ([1]; 30 mg/kg orally once daily, after 8 weeks) was 47.1%, the “body weight decrease, of pre-administration weight” value ([1]; 30 mg/kg orally once daily, after 8 weeks, DIO mice) was 20.8% and the food intake ([1]; 30 mg/kg orally once daily, first 2 weeks of administration) was “decreased”. For the same compound, the fasting blood glucose [2, 4] was “inhibit the increase in fasting blood glucose”, the “glucose metabolism (OGTT)” value [2, 4] was “enhance glucose metabolism” and the “body weight decrease, of the pre-administration weight” value ([2]; 50 mg/kg orally once daily, first week of administration, after 9 weeks HFD) was 12%-16%.
